Test results from patent publication US20210322508A1, “PEPTIDES AND COMPOSITIONS FOR TARGETED TREATMENT AND IMAGING” (SIGNABLOK, INC., priority 2018, published 2021).
Residues, ends and D or L forms follow the SMILES beside them.

Assays:
[1] = Mouse tolerability studies; format: in vivo; conditions: female, C57BL/6, mouse, in vivo, ip
Method: Naïve, female C57BL/6 mice at 8 to 10 weeks of age (18 to 21 g) from the Jackson Laboratory were used. […] Clinical observations and body weights were made twice daily.
Naïve, female C57BL/6 mice at 8 to 10 weeks of age (18 to 21 g) from the Jackson Laboratory were used. Animals were randomly grouped (5 mice per group) and i.p. injected with 400 mg/kg G-HV21, G-KV21 or G-TE21. Clinical observations and body weights were made twice daily.

[2] = test system: mice with collagen-induced arthritis (CIA); assay: collagen-induced arthritis (CIA) in mice; conditions: for tolerability in arthritic mice (body weight changes) / arthritis (clinical arthritis score): CIA mice; for tolerability in arthritic mice (body weight changes): day 24 to day 38; for arthritis (clinical arthritis score): treatment days 24-38
Description: As described herein, starting on day 24 after immunization, mice with CIA were intraperitoneally (i.p.) administered daily for 14 consecutive days with vehicle (black diamonds), dexamethasone (black squares), GF9 (white circles), GF9-LPC (black circles) and GA/E31-LPC (half black half white circles) at indicated doses. Daily clinical scores were given on a scale of 0-5 for each of the paws on days 24-38. On day 38, mice were killed and the histopathological examination of mouse joints was performed. Histopathological scores of inflammation (I), pannus (P), cartilage damage (CD), bone resorption (BR) and periosteal new bone formation (PBF) are shown. Summed histopathology scores were calculated as the sum of all five histopathological parameters. All results are expressed as the mean±SEM (n=10 mice per group).
Mouse body weight (BW) was measured every other day from day 24 to day 38. Mean BW changes were calculated as a percentage of the difference between beginning (day 24) and final (day 38) BWs of the CIA mice intraperitoneally (i.p.) treated daily for 14 consecutive days with vehicle, dexamethasone, GF9, GF9-LPC and GA/E31-LPC at indicated doses. All results are expressed as the mean±SEM (n=10 mice per group).
Plasma was collected on days 24, 30 and 38 from arthritic mice treated with vehicle (black diamonds), GF9 (white circles), GF9-LPC (black circles) and GA/E31-LPC (half black half white circles). Plasma samples were analyzed for concentrations of interleukin-1b (IL-1b), IL-6, and colony-stimulating factor 1 (CSF1). Results are expressed as the mean±SEM (n=5 mice per group).

[3] = tolerability in healthy mice (body weight); format: in vivo
Method: As described herein, healthy C57BL/6 mice were intraperitoneally (i.p.) administered daily for 7 consecutive days with GF9 at indicated doses Mouse body weight (BW) was measured daily.

[4] = test system: DBA/1 mice with collagen-induced arthritis; assay: Collagen-induced arthritis (CIA) model; conditions: for CIA severity; bone and cartilage damage: 5 mg/kg i.p. daily 14 days, free peptides
Method: Animal studies were performed by Bolder BioPATH (Boulder, Colo., USA). CIA was induced in male 6- to 7-week-old DBA/1 mice by immunization with bovine type II collagen. Briefly, mice were injected intradermally with 100 μl of Freund's complete adjuvant containing 250 μg of bovine type II collagen (2 mg/ml final concentration) at the base of the tail on day 0 and again on day 21. On day 24, mice were randomized by body weight into treatment groups. […] Mice were weighed on study days 24, 26, 28, 30, 32, 34, 36 and 38 (prior to necropsy). Daily clinical scores were given on a scale of 0-5 for each of the paws on days 24-38. On day 38, mice were killed for necropsy.
At the end of study, fore paws, hind paws and knees were harvested, fixed in 10% neutral buffered formalin for 1-2 days, and then decalcified in 5% formic acid for 4-5 days before standard processing for paraffin embedding. Sections (8 μm) were cut and stained with toluidine blue (T blue). Hind paws, fore paws and knees were embedded and sectioned in the frontal plane. Six joints from each animal were processed for histopathological evaluation. The joints were then assessed using 0-5 scale for inflammation, pannus formation, cartilage damage, bone resorption and periosteal new bone formation. A summed histopathology score (sum of five parameters, 0-25 scale) was also determined.
Animal studies were performed by Bolder BioPATH (Boulder, Colo., USA). CIA was induced in male 6- to 7-week-old DBA/1 mice by immunization with bovine type II collagen. Briefly, mice were injected intradermally with 100 μl of Freund's complete adjuvant containing 250 μg of bovine type II collagen (2 mg/ml final concentration) at the base of the tail on day 0 and again on day 21. On day 24, mice were randomized by body weight into treatment groups. […] Starting day 24, mice were injected i.p. intraperitoneally daily for 14 consecutive days with 5 mg/kg G-KV21, G-HV21, G-TE21, M-TK32 and M-VE32 or with PBS (vehicle). Mice were weighed on study days 24, 26, 28, 30, 32, 34, 36 and 38 (prior to necropsy). Daily clinical scores were given on a scale of 0-5 for each of the paws on days 24-38. On day 38, mice were killed for necropsy.

H292 and A549 xenografts = conditions: for tumor growth: free peptides i.p. at indicated doses
Method: Animal efficacy studies were performed using female 6-8 week old NU/J mice from the Jackson Laboratory (Bar Harbor, Me.). Animals were handled as specified in the USDA Animal Welfare Act (9 CFR, Parts 1, 2, and 3) and as described in the Guide for the Care and Use of Laboratory Animals from the National Research Council. Human lung carcinoma cell lines H292 and A549 were obtained from ATCC. Tumor cells in culture were harvested and resuspended in a 1:1 ratio of RPMI 1640 and Matrigel (BD Biosciences, San Jose, Calif.). NSCLC xenografts were established by injecting subcutaneously into the right flanks 5×10^6 viable cells per mouse. Tumor volumes were calculated with caliper measurements using the formula V=π/6 (length×width×width). […] All tested formulations were intraperitoneally (i.p.) injected at indicated doses and administration schedule. Clinical observations, body weights and tumor volume measurements were made 3 times weekly. Tumor volumes were analyzed using repeated measures ANOVA followed by Bonferroni test. Data points were represented as mean tumor volume±SEM. Antitumor effects were expressed as the percentage of T/C (treated versus control), dividing the tumor volumes from treatment groups with the control groups and multiplied by 100. According to the National Cancer Institute (NCI) standards (see e.g., Johnson, et al. Br J Cancer 2001, 84:1424-1431), a % T/C≤42 is indicative of antitumor activity. At the end of the experiment, the animals were sacrificed and the tumors were excised and weighed.

mouse lipoproteins = assay: ultracentrifugation of mouse serum with added rho B-labeled peptides; conditions: for behaviour on ultracentrifugation of whole mouse serum: rho B-labeled peptide added to whole mouse serum; for behaviour on ultracentrifugation of delipoproteinized mouse serum: rho B-labeled peptide added to delipoproteinized mouse serum
[5] = test system: human non-small cell lung cancer H292 xenograft; assay: H292 xenograft mouse model; format: in vivo, mice; conditions: vs vehicle
Description: (§1) PTX, paclitaxel. ****, P<0.0001 as compared with vehicle-treated animals.
(§2) PTX, paclitaxel. ****, p<0.0001 as compared with vehicle-treated animals.
(§3) Abbreviations: PTX, paclitaxel; PBS, phosphate-buffer saline.

[6] = test system: human non-small cell lung cancer A549 xenograft; format: in vivo; conditions: vs vehicle; for tumor growth: PTX 20 mg/kg as comparator
Method: as §1, §2, §3
Treatment persisted for 21 days. Mean tumor volumes are calculated and plotted. Body weighs are plotted.

[7] = 400 mg/kg, free form, healthy mice
[8] = healthy C57BL/6 mice, average weights

Compound	MTD [1]	penetration of the synovial membrane ([2]; mouse, in vivo)	MTD at 168 h ([3]; C57BL/6, mouse, in vivo, ip)	dose tolerated by healthy mice ([3]; healthy mice, GF9 i.p. daily for 7 consecutive days)	toxicity in healthy mice ([3]; mouse, in vivo)	toxicity / tolerability in arthritic mice ([4]; mouse, in vivo, ip)	toxicity / tolerability in cancer mice (H292 and A549 xenografts; in vivo)	behaviour on ultracentrifugation of whole mouse serum (mouse lipoproteins)	tumor growth [5]	MTD [1, 7]	tolerability in arthritic mice (body weight changes) [2]	arthritis (clinical arthritis score) [2]	toxicity in healthy mice [3, 8]	CIA severity; bone and cartilage damage [4]	average tumor weights [6]	tumor growth [6]	tumor growth (H292 and A549 xenografts)	behaviour on ultracentrifugation of delipoproteinized mouse serum (mouse lipoproteins)
CC(C)C[C@H](NC(=O)[C@H](Cc1ccccc1)NC(=O)CN)C(=O)N[C@@H](CO)C(=O)N[C@@H](CCCCN)C(=O)N[C@@H](CO)C(=O)N[C@@H](CC(C)C)C(=O)N[C@H](C(=O)N[C@@H](Cc1ccccc1)C(=O)O)C(C)C [GF9] (H-GFLSKSLVF-OH)	≥ 300 mg/kg	penetrate the synovial membrane	≥ 300 mg/kg	up to 300 mg/kg	non-toxic	non-toxic and well-tolerable by arthritic mice	non-toxic and well-tolerable by cancer mice	sedimentate with serum proteins										
CC(C)C[C@H](NC(=O)[C@H](Cc1ccccc1)NC(=O)CN)C(=O)N[C@@H](CO)C(=O)N[C@@H](CCCCN)C(=O)N[C@@H](CO)C(=O)N[C@@H](CC(C)C)C(=O)N[C@H](C(=O)N[C@@H](Cc1ccccc1)C(=O)NCC(=O)N[C@@H](CCC(=O)O)C(=O)N[C@@H](CCC(=O)O)C(=O)N[C@@H](CC[S+](C)[O-])C(=O)N[C@@H](CCCNC(=N)N)C(=O)N[C@@H](CC(=O)O)C(=O)N[C@@H](CCCNC(=N)N)C(=O)N[C@@H](C)C(=O)N[C@@H](CCCNC(=N)N)C(=O)N[C@@H](C)C(=O)N[C@@H](Cc1c[nH]cn1)C(=O)N[C@H](C(=O)O)C(C)C)C(C)C (stereo partly drawn) [G-HV21] (HELM PEPTIDE1{G.F.L.S.K.S.L.V.F.G.E.E.[CS(=O)CC[C@H](N[*:1])C(=O)[*:2]].R.D.R.A.R.A.H.V}$$$$V2.0)								floatation of these peptides with mouse lipoproteins	significantly inhibit the tumor growth	≥ 400 mg/kg	well-tolerated by arthritic mice	ameliorate the disease	No toxicity was observed	ameliorate CIA and protect against bone and cartilage damage	significantly decrease the tumor weight	significantly inhibit the tumor growth	inhibit tumor growth in two human NSCLC xenograft mouse models	sedimentate with serum proteins
CC(C)C[C@H](NC(=O)[C@H](Cc1ccccc1)NC(=O)CN)C(=O)N[C@@H](CO)C(=O)N[C@@H](CCCCN)C(=O)N[C@@H](CO)C(=O)N[C@@H](CC(C)C)C(=O)N[C@H](C(=O)N[C@@H](Cc1ccccc1)C(=O)N[C@@H](Cc1c[nH]c2ccccc12)C(=O)N[C@@H](CCC(N)=O)C(=O)N[C@@H](CCC(=O)O)C(=O)N[C@@H](CCC(=O)O)C(=O)N[C@@H](CC[S+](C)[O-])C(=O)N[C@@H](CCC(=O)O)C(=O)N[C@@H](CC(C)C)C(=O)N[C@@H](Cc1ccc(O)cc1)C(=O)N[C@@H](CCCNC(=N)N)C(=O)N[C@@H](CCC(N)=O)C(=O)N[C@@H](CCCCN)C(=O)N[C@H](C(=O)O)C(C)C)C(C)C (stereo partly drawn) [G-KV21] (HELM PEPTIDE1{G.F.L.S.K.S.L.V.F.W.Q.E.E.[CS(=O)CC[C@H](N[*:1])C(=O)[*:2]].E.L.Y.R.Q.K.V}$$$$V2.0)								floatation of these peptides with mouse lipoproteins	significantly inhibit the tumor growth	≥ 400 mg/kg	well-tolerated by arthritic mice	ameliorate the disease	No toxicity was observed	ameliorate CIA and protect against bone and cartilage damage	significantly decrease the tumor weight	significantly inhibit the tumor growth	inhibit tumor growth in two human NSCLC xenograft mouse models	sedimentate with serum proteins
